# Values of other authors as cited in patent publication US20230304100A1, “METHOD OF PREDICTING THERAPEUTIC RESPONSE AND PROGNOSIS OF METASTATIC BREAST CANCER TO CHEMOTHERAPEUTIC AGENTS, AND TREATING METASTATIC BREAST CANCER” (Samsung Life Public Welfare Foundation, priority 2021, published 2023).
# Tested on: premenopausal HR+/HER2− metastatic breast cancer patients
# Conditions: Young-PEARL study
smiles,measurement,value
CCCCCOC(=O)Nc1nc(=O)n([C@@H]2O[C@H](C)[C@@H](O)[C@H]2O)cc1F [capecitabine],median progression-free survival (PFS),14.4 months
